Earlier results in patent US9968649B2, “Vasopressin formulations for use in treatment of hypotension” (Par Pharmaceutical, Inc., priority 2015, dated 2018).

Test system: healthy subjects
Details: cited from earlier work

Compound: NS(=O)(=O)c1cc(C(=O)O)c(NCc2ccco2)cc1Cl [Furosemide]
- increase of urine flow (co-administered with exogenous vasopressin, healthy subjects): 9 fold

Compound: FC(F)(F)C(Cl)Br (stereo not shown) [Halothane]
- impact on exposure to endogenous vasopressin (in vivo): do not impact exposure

Compound: COc1ccc2c(c1)c(CC(=O)O)c(C)n2C(=O)c1ccc(Cl)cc1 [Indomethacin]
- time to offset for vasopressin's effect on peripheral vascular resistance and cardiac output (co-administered with vasopressin, healthy subjects): more than doubles

Compound: CC[N+](CC)(CC)CC [tetra-ethylammonium]
- increase of the pressor effect of vasopressin (healthy subjects): 20%
